Data taken from US9783552B2, “Soluble guanylate cyclase activators” (MERCK SHARP & DOHME CORP., priority 2013, dated 2017).
pEC50: −log10 of the molar value.

Target: T1, sGC α1/β1 heterodimer (Homo sapiens, UniProt Q02108+Q02153)
T1 construct: expressed in transfected cells
T1 sequence (Q02108 1-690): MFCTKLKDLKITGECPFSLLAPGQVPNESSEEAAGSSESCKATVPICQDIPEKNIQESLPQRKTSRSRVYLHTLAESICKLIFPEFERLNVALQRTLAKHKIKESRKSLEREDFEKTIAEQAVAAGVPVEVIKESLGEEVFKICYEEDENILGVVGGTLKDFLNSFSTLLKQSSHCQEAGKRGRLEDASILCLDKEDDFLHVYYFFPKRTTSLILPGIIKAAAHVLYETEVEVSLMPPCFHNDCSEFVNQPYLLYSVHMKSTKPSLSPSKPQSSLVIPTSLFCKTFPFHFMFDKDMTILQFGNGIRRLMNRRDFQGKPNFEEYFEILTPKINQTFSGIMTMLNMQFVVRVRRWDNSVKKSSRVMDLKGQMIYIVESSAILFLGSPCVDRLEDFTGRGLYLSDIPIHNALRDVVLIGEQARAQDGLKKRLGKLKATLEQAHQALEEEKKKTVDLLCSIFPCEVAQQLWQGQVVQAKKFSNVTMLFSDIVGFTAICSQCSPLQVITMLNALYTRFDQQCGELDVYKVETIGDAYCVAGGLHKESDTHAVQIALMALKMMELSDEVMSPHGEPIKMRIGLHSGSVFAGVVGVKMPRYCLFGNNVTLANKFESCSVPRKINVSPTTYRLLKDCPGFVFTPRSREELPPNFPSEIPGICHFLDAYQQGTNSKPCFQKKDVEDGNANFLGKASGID
T1 sequence (Q02153 1-619): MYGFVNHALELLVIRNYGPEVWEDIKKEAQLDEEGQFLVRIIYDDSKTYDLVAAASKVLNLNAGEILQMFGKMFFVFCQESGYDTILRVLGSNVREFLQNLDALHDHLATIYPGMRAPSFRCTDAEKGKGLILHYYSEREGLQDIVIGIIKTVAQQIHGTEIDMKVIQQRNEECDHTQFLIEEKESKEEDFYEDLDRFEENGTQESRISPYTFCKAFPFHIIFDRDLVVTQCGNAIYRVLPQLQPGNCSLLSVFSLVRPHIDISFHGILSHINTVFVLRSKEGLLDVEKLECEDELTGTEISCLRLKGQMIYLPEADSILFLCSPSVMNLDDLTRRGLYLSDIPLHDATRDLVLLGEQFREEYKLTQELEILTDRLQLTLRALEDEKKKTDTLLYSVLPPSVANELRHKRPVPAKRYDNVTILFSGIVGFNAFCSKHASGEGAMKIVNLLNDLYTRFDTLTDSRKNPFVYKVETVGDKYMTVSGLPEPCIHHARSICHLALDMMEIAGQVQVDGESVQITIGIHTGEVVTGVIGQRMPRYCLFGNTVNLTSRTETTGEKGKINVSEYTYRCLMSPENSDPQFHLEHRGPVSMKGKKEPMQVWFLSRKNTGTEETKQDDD
Experiment: Cell-Based sGC Functional Assay (CASA Assay)
Details: CHO-K1/sGC cells; for pEC50: intracellular cGMP by HTRF, 1 hr at 37° C., IP from 4P fit, presence or absence of 1 μM DETA-NO not given; for Emax: cGMP as percentage of maximum cGMP production of Compound A (=100% activation), read-out: % ACT (percent activation)
Source text: Biological Assays: Cell-Based sGC Functional Assay (CASA Assay)
sGC is a heme-containing enzyme that converts GTP to secondary messenger cGMP. Increases in cGMP levels affect several physiological processes including vasorelaxation through multiple downstream pathways. […] Heme-dependent activators (HDAs) preferentially activate sGC containing a ferrous heme group. To determine the effect of sGC activators on enzyme activity, the CASA assay was developed to monitor the generation of cGMP in a cell line that stably expresses the heterodimeric sGC protein.
A CHO-K1 cell line stably expressing the sGC α1/β1 heterodimer was generated using a standard transfection protocol. CHO-K1 cells were transfected with plasmids pIREShyghsGCα1 and pIRESneo-hsGCβ1 simultaneously using FUGENE reagent. Clones that stably express both subunits were selected with hygromycin and neomycin for ˜2 weeks. Clone #7 was chosen for the assay and was designated CHO-K1/sGC. CHO-K1/sGC cells were maintained in F-K12 medium containing 10% heat-inactivated Fetal Bovine Serum (FBS), 100 μg/mL penicillin/streptomycin, 0.5 mg/mL hygromycin and 0.25 mg/mL G418. The cells were then cryopreserved in LN2. On the day of the assay, cells were thawed and resuspended in EBSS Assay Buffer (EAB, Sigma, E3024) supplemented with 5 mM MgCl2, 10 mM HEPES (4-(2-hydroxyethyl)piperazine-1-ethanesulfonic acid) and 0.05% BSA (bovine serum albumin) and cell density was then adjusted to 4×10^5/mL with EAB. IBMX (3-isobutyl-1-methylxanthin, 0.5 mM) was added to inhibit degradation of cGMP. Compounds were diluted from DMSO stock solutions and added to the assay at a final DMSO concentration of 2.5%. Cells were incubated with compounds in the presence and absence of 1 μM of Diethylenetriamine/nitric oxide adduct (DETA-NO; Sigma, 17018) for 1 hr at 37° C. At the end of the incubation period, the reaction was terminated and the cells were lysed with the detection reagents from Cisbio Kits. The level of intracellular cGMP was determined using an HTRF-based assay kit (CisBio, 62GM2PEC), which detects the displacement of a fluorescence labeled cGMP from its specific antibody. The cGMP produced by test compounds was directly compared to the maximum cGMP production (this value was set to equal 100% activation) of the published sGC-HDA Compound A:
[drawing 123] (Example 1 in WO 2010/065275, published Jun. 10, 2010). The test compounds' activity was then expressed as a percentage of Compound A, the standard in every experiment. This percent activation was calculated either in the presence or absence of DETA-NO which was then plotted. IP and maximum fold induction was derived using ADA analysis software for 4P fit.

Row | pEC50 | Emax [%] | Compound
1 | 7.21 | 107 | [2H]C([2H])([2H])n1ncc2c(-c3nc(N)c4c(n3)NC(=O)C4(C(=O)NC3CC3)C(C)C)nc(CCC(F)(F)C(F)(F)F)nc21 (single isomer, unassigned) [Example 35, 4-Amino-N-cyclopropyl-5-isopropyl-2-(6-(3,3,4,4,4-pentafluorobutyl)-1-trideuteriomethyl-1H-pyrazolo[3,4-d]pyrimidin-4-yl)-6-oxo-6,7-dihydro-5N-pyrrolo[2,3-d]pyrimidine-5-carboxamide]
2 | 6.37 | 66 | [2H]C([2H])([2H])n1nnc2c(-c3nc(N)c4c(n3)NC(=O)C4(C)c3ccc(F)c(OC)c3)nc(CCC(F)(F)C(F)(F)F)nc21 (single isomer, unassigned) [Example 72, 4-Amino-5-(4-fluoro-3-methoxyphenyl)-5-methyl-2-(5-(3,3,4,4,4-pentafluorobutyl-3-trideuteriomethyl)-3H-[1,2,3]triazolo[4,5-d]pyrimidin-7-yl)-5H-pyrrolo[2,3-d]pyrimidin-6(7H)-one]
3 | 6.54 | 104 | [2H]C([2H])([2H])n1ncc2c(-c3nc(N)c4c(n3)NC(=O)C4(C)C3CC3)nc(CCC(F)(F)C(F)(F)F)nc21 (single isomer, unassigned) [Example 17, 4-Amino-5-cyclopropyl-5-methyl-2-(6-(3,3,4,4,4-pentafluorobutyl)-1-trideuteriomethyl-1H-pyrazolo[3,4-d]pyrimidin-4-yl)-5H-pyrrolo[2,3-d]pyrimidin-6(7H)-one]
4 | 7.31 | 106 | C#CC1(CC)C(=O)Nc2nc(-c3nc(CCC(F)(F)C(F)(F)F)nc4c3cnn4C)nc(N)c21 (single isomer, unassigned) [Example 23, 4-Amino-5-ethyl-5-ethynyl-2-(1-methyl-6-(3,3,4,4,4-pentafluorobutyl)-1H-pyrazolo[3,4-d]pyrimidin-4-yl)-5H-pyrrolo[2,3-d]pyrimidin-6(7H)-one]
5 | 6.19 | 112 | CCn1ncc2c(-c3nc(N)c4c(n3)NC(=O)C4(C(=O)NC3CC3)C3CC3)nc(CCC(F)(F)C(F)(F)F)nc21 (single isomer, unassigned) [Example 38, 4-Amino-N,5-dicyclopropyl-2-(1-ethyl-6-(3,3,4,4,4-pentafluorobutyl)-1H-pyrazolo[3,4-d]pyrimidin-4-yl)-6-oxo-6,7-dihydro-5H-pyrrolo[2,3-d]pyrimidine-5-carboxamide]
6 | 5.91 | 101 | Cn1ncc2c(-c3nc(N)c4c(n3)NC(=O)C4(C)N)nc(CCC(F)(F)C(F)(F)F)nc21 (single isomer, unassigned) [Example 50, 4,5-Diamino-5-methyl-2-(1-methyl-6-(3,3,4,4,4-pentafluorobutyl)-1H-pyrazolo[3,4-d]pyrimidin-4-yl)-5H-pyrrolo[2,3-d]pyrimidin-6(7H)-one]
7 | 7.82 | 112 | COc1ccc(C2(C)C(=O)Nc3nc(-c4nc(CCC(F)(F)C(F)(F)F)nc5c4cnn5C)nc(N)c32)cc1F (single isomer, unassigned) [Example 16, 4-Amino-5-(3-fluoro-4-methoxyphenyl)-5-methyl-2-(1-methyl-6-(3,3,4,4,4-pentafluorobutyl)-1H-pyrazolo[3,4-d]pyrimidin-4-yl)-5H-pyrrolo[2,3-d]pyrimidin-6(7H)-one]
8 | 6.49 | 95 | [2H]C([2H])([2H])n1nnc2c(-c3nc(N)c4c(n3)NC(=O)C4(C)c3ccc(Cl)cc3)nc(CCC(F)(F)C(F)(F)F)nc21 (single isomer, unassigned) [Example 70, 4-Amino-5-(4-chlorophenyl)-5-methyl-2-(5-(3,3,4,4,4-pentafluorobutyl-3-trideuteriomethyl)-3H-[1,2,3]triazolo[4,5-d]pyrimidin-7-yl)-5H-pyrrolo[2,3-d]pyrimidin-6(7H)-one]
9 | 6.95 | 88 | [2H]C([2H])([2H])n1ncc2c(-c3nc(N)c4c(n3)NC(=O)C4(C)c3cccc(O)c3)nc(CCC(F)(F)C(F)(F)F)nc21 (centres unmarked) [Example 44, 4-Amino-5-(3-hydroxyphenyl)-5-methyl-2-(6-(3,3,4,4,4-pentafluorobutyl)-1-trideuteriomethyl-1H-pyrazolo[3,4-d]pyrimidin-4-yl)-5H-pyrrolo[2,3-d]pyrimidin-6(7H)-one]
10 | 6.92 | 132 | Cn1ncc2c(-c3nc(N)c4c(n3)NC(=O)C4(C)c3ccccc3)nc(CCCC(F)(F)F)nc21 (single isomer, unassigned) [Example 3, 4-Amino-5-methyl-2-(1-methyl-6-(4,4,4-trifluorobutyl)-1H-pyrazolo[3,4-d]pyrimidin-4-yl)-5-phenyl-5H-pyrrolo[2,3-d]pyrimidin-6(7H)-one]
11 | 7.26 | 121 | Cn1ncc2c(-c3nc(N)c4c(n3)NC(=O)C4(C)C(=O)NC3CC3)nc(Cc3cccc(F)c3F)nc21 (single isomer, unassigned) [Example 40, 4-Amino-N-cyclopropyl-2-(6-(2,3-difluorobenzyl)-1-methyl-1H-pyrazolo[3,4-d]pyrimidin-4-yl)-5-methyl-6-oxo-6,7-dihydro-5H-pyrrolo[2,3-d]pyrimidine-5-carboxamide]
12 | 7.31 | 80 | [2H]C([2H])([2H])n1ncc2c(-c3nc(N)c4c(n3)NC(=O)C4(CCCC)C3CC3)nc(CCC(F)(F)C(F)(F)F)nc21 (single isomer, unassigned) [Example 25, 4-Amino-5-butyl-5-cyclopropyl-2-(6-(3,3,4,4,4-pentafluorobutyl)-1-trideuteriomethyl-1H-pyrazolo[3,4-d]pyrimidin-4-yl)-5H-pyrrolo[2,3-d]pyrimidin-6(7H)-one]
13 | 6.39 | 107 | [2H]C([2H])([2H])n1nnc2c(-c3nc(N)c4c(n3)NC(=O)C4(C)c3ccccc3)nc(CCC(F)(F)C(F)(F)F)nc21 (single isomer, unassigned) [Example 68, 4-Amino-5-methyl-2-(5-(3,3,4,4,4-pentafluorobutyl-3-trideuteriomethyl)-3H-[1,2,3]triazolo[4,5-d]pyrimidin-7-yl)-5-phenyl-5H-pyrrolo[2,3-d]pyrimidin-6(7H)-one]
